From article PMC11173529, “Structure–Activity Relationship Studies in a Series of Xanthine Inhibitors of SLACK Potassium Channels” (Molecules, 2024) come the findings set out here.

This assay concerns the target T1, WT hSLACK (Homo sapiens, UniProt Q5JUK3).
T1 construct: host or cells: CHO-K1
T1 sequence (Q5JUK3 1-1235 isoform Q5JUK3-3): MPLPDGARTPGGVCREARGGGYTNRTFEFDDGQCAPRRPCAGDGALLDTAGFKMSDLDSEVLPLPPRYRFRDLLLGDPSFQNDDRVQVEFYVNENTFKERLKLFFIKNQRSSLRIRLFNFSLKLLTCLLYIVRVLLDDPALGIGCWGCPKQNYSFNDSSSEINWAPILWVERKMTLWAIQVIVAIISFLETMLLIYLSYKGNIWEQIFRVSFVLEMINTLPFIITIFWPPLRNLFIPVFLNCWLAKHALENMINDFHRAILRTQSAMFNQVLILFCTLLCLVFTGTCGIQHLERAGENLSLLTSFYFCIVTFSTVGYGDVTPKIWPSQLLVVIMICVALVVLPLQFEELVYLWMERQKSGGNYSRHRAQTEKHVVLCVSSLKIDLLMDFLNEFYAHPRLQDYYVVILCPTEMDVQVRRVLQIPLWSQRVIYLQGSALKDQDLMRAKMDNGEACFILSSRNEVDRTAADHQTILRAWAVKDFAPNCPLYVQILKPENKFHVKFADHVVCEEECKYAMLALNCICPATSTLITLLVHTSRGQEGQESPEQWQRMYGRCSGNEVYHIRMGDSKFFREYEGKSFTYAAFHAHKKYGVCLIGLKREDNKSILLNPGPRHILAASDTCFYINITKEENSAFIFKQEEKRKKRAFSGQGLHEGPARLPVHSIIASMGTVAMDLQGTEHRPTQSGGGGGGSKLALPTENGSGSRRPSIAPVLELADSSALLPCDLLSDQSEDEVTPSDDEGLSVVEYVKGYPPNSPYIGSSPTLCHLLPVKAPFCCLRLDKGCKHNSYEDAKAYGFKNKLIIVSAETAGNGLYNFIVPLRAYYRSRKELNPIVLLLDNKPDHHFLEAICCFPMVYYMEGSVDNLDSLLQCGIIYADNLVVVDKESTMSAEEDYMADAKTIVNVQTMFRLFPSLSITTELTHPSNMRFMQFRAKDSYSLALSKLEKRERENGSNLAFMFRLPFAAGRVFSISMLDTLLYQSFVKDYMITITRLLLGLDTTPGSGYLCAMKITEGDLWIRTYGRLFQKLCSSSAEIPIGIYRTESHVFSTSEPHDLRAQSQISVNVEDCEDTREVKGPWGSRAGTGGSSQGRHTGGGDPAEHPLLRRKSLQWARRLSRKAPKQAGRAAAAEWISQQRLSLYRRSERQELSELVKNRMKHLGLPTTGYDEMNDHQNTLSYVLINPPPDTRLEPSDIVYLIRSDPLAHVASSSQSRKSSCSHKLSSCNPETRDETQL
The assay can be described thus: Whole-cell automated patch-clamp (APC) in CHO cells stably expressing WT hSLACK. As to conditions: for IC50: whole-cell APC, CHO cells stably expressing WT hSLACK, averages n ≥ 3, read-out: SLACK IC50; for SLACK Imax: maximum inhibition at 30 µM test compound standardized to VU0606170 (set at 100%), WT hSLACK. The format is cell-based. How it is done: All new analogs were tested in our APC assay using CHO cells stably expressing WT SLACK using a concentration-response format with concentrations ranging from 0.125 to 30 μM in half-log steps and a minimum of three cells (replicates) per concentration series. […] Still, there were some notable results. For example, substitution at the 4-position was largely unfavorable regardless of the nature of the substituent (21, 24, 27, 30, and 33) apart from the 4-fluoro analog 18. […] As the trifluoromethyl group is similar in electronegativity to chlorine, but larger than both methyl and chlorine, perhaps the steric bulk of the trifluoromethyl is to blame for the poor potency of these analogs. With the exception of the fluoro (16–18) and cyano (28–30) analogs, substitution at the 3-position was favorable for SLACK activity, with 3-methoxy analog 32 standing out in this set.
Stably transfected monoclonal HEK293 cell lines expressing Slick, Maxi-K α1/β3, Maxi-K α1/β4, CaV3.2, GIRK 1/2, KV2.1, KV7.2, NaV1.7, and TASK-1 were generated as previously described. Stably transfected monoclonal HEK293 cell lines expressing hERG were generated as previously described. CHO-K1 cells expressing human Slack and disease-associated human Slack mutations, G288S and A934T, were generated by transfecting a PiggyBac TRE mammalian expression vector (VectorBuilder, Chicago, IL, USA) containing KCNT1. FuGENE 6 (Promega, Madison, WI, USA) transfection reagent and protocol, together with Opti-MEM (Thermo Fisher Scientific, Walkham, MA, USA), were utilized.
Automated patch-clamp recording was performed with a SyncroPatch 768 PE system (Nanion, Munich, Germany) as previously described. Whole-cell recordings were performed at room temperature. Cells were harvested by first washing with PBS without Mg^2+ or Ca^2+ (Gibco, Billings, MT, USA) to remove cell culture media, followed by dissociation with TryPLE (Gibco, Billings, MT, USA). Cells were then resuspended and diluted to 100,000 cells/mL in external solution. External solution contained 105 mM NaCl, 4 mM KCl, 1 mM MgCl2, 5 mM CaCl2, 10 mM HEPES, and 40 mM N-Methyl-D-glucamine chloride, titrated to pH of 7.4 and osmolarity of 300 mOsm/kg; internal solution contained 70 mM NaCl, 70 mM KF, 10 mM KCl, 5 mM EGTA, and 5 mM HEPES, titrated to a pH of 7.2 and osmolarity of 295 mOsm/kg.
The APC protocol was set as follows: Cells were held at a […] of −80 mV for 100 ms, then a ramp protocol was performed from −100 mV to 80 mV at 0.4 mV/ms, followed by holding the cell at −80 mV for another 100 ms, then steps were performed at −20 mV, 0 mV, +20 mV, +40 mV, and +60 mV for 100 ms of each step. Whole-cell currents were measured at 0 mV and normalized to current after external buffer addition. […] To obtain the concentration-response relationship graphs and IC50 values, we take the median value of the last 7 current amplitude values obtained for each set of data points collected for a given concentration at a particular step.
(The patch-clamp technique gives a direct electrical read-out from membranes.)

Consider `CCCCN(Cc1cccc(F)c1)c1nc2c(c(=O)n(Cc3cccc(OC)c3)c(=O)n2C)n1C` [Analog 78], for which the IC50 came to 1200 nM.
On to `COc1cccc(Cn2c(=O)c3c(nc(N(C)Cc4ccccc4)n3C)n(C)c2=O)c1` [Analog 32], for which the “SLACK Imax” value worked out at 100% and the half-maximal inhibitory concentration (IC50) is 800 nM.
The like results for `Cn1c(N(Cc2ccccc2)CC2CC2)nc2c1c(=O)n(Cc1ccccc1)c(=O)n2C` [Analog 71] were, in that order, 100% and 980 nM.
For the compound `COc1cccc(Cn2c(=O)c3c(nc(N(Cc4ccc(F)cc4)CC4CC4)n3C)n(C)c2=O)c1` [Analog 81], the 50% inhibitory concentration (IC50) worked out at 1500 nM.
For the compound `CCCCN(Cc1ccccc1)c1nc2c(c(=O)n(Cc3ccccc3)c(=O)n2C)n1C` [Analog 70], the “SLACK Imax” value was determined as 100% and the IC50 came out at 940 nM.
Consider `COc1cccc(Cn2c(=O)c3c(nc(N(Cc4cccc(F)c4)CC4CC4)n3C)n(C)c2=O)c1` [Analog 79], for which the IC50 stood at 1000 nM.
On the same count and under the same terms, the result for `CCCCN(Cc1ccc(F)cc1)c1nc2c(c(=O)n(Cc3cccc(OC)c3)c(=O)n2C)n1C` [Analog 80] reads 700 nM.
With `CN(Cc1cccc(F)c1)c1nc2c(c(=O)n(Cc3ccccc3)c(=O)n2C)n1C` [Analog 48], the “SLACK Imax” value is 100% and the half-maximal inhibitory concentration (IC50) was determined as 890 nM.

In general, IC50 refers to the concentration that gives 50% inhibition.
